These results are taken from patent US7625911B2, “Amorphous form of erlotinib hydrochloride and its solid amorphous dispersion” (Mai De Ltd., priority 2005, dated 2009).

A short description of the series: Solubility (complete dissolution) of erlotinib hydrochloride in alcohol solvents at elevated temperature. Format: physicochemical. An excerpt: In a first step of the distillation process, crystalline erlotinib hydrochloride is preferably dissolved in an […] solvent; more preferably dissolved in a straight or branched chain C1-C4 alcohol solvent, and most preferably dissolved in methanol or ethanol to form a solution. Erlotinib hydrochloride has the highest solubility in methanol or ethanol, allowing the complete dissolution of erlotinib hydrochloride at elevated temperature.
In particular, erlotinib hydrochloride is soluble in methanol at or over 50° C., allowing the complete dissolution of erlotinib hydrochloride in methanol at 50° C. or above with a concentration of 10 mg per milliliter (ml). The use of a relatively concentrated solution, e.g. about 10 mg per ml is therefore preferred for methanol.
In particular, erlotinib hydrochloride is soluble in ethanol at or over 70° C., allowing the complete dissolution of erlotinib hydrochloride in ethanol at […] with a concentration of 10 mg per ml. The use of a relatively concentrated solution, e.g. about 10 mg per ml is therefore preferred for ethanol.
In particular, erlotinib hydrochloride is soluble in methanol, ethanol or a mixture of ethanol and water solvents at 45° C.-55° C., allowing the complete dissolution of erlotinib hydrochloride in methanol or ethanol at this elevated temperature with a concentration of about 10 mg per ml. The use of a relatively concentrated solution, e.g. about 10 mg per ml or over is therefore preferred for spraying drying process.

On to `C#Cc1cccc(Nc2ncnc3cc(OCCOC)c(OCCOC)cc23)c1.Cl` [erlotinib hydrochloride, [6,7-bis(2-methoxy-ethoxy)-quinazolin-4-yl]-(3-ethynyl-phenyl) amine hydrochloride], for which, for the setting “ethanol, soluble at or over 70° C. (sentence also says ambient temperature)”, the “concentration at complete dissolution in ethanol” value turned out to be 10 mg per ml. Also, where the note is “methanol, at 50° C. or above”, the “concentration at complete dissolution in methanol” value is 10 mg per milliliter (ml). Moreover, the “concentration at complete dissolution in methanol, ethanol or a mixture of ethanol and water” value (methanol, ethanol or ethanol/water mixture, 45° C.-55° C.) is recorded as “about 10 mg per ml”.
